Test results taken from patent publication US20260049088A1, “TRICYCLIC HETEROCYCLIC DERIVATIVES, COMPOSITIONS AND USES THEREOF” (Danatlas Pharmaceuticals Co., Ltd., priority 2023, published 2026).

Molecular target: T1, hPARG (Homo sapiens, UniProt Q86W56)
T1 construct: made in house; host or cells: E. coli
Assay: PARG enzymatic activity assay (HTRF)
Type: biochemical
Details: C-terminal His6-tag hPARG 65 pM, biotinylated-NAD ribosylated PARP1 substrate 8 nM
Procedure: HTRF assay was used to measure the ability of compounds to inhibit the activity of […] in vitro. C-terminal His6—tag PARG expressed in E. coli was purified and stored at −80° C. in aliquots. Assay measurements were performed with 1×buffer comprising 50 mM Tris pH 7.4, 0.1 mg/mL BSA, 3 mM EDTA, 0.4 mM EGTA, 1 mM DTT, 50 mM KCl and 0.01% Tween 20. Compounds dissolved in DMSO were plated into a 384-well assay plate (PerkinElmer, Catalog #: 6008280) in duplicate using a dispenser (Labcyte, Echo 665), and tested on a 10-point 4-fold serial dilution. Add 5 μL Enzyme mix [hPARG (C-terminal His6—tag, 4.2 μM), 65 pM final] to the test wells. The plates were covered and left to incubate for 60 minutes at RT before the addition of 5 μL substrate mix [biotinylated-NAD ribosylated PARP1 (6.1 μM), 8 nM final] to initiate reaction. After incubating 10 minutes at RT, add 2.5 μL Streptavidin-Eu cryptate (Cisbio, Catalog #: 610SAKLA) and 2.5 μL Mab anti 6HIS-XL665 (Cisbio, Catalog #: 61HISXLA) to the plate, and incubate for 60 minutes at RT. Read on a multimode plate reader (PerkinElmer, Envision 2015) in time-resolved fluorescence (TRF) mode, with excitation at 337 nm and emission at both 620 nm and 665 nm. Average HTRF signal of high control (Wells with 1% DMSO) was calculated and as Vehicle Control (VC). Average HTRF signal of low control (no Enzyme) was calculated and as Positive control (PC).
IC50 values were determined by fitting the data to the standard 4 parameters with Hill Slope using GraphPad Prism software.

T1 sequence (Q86W56 whole entry): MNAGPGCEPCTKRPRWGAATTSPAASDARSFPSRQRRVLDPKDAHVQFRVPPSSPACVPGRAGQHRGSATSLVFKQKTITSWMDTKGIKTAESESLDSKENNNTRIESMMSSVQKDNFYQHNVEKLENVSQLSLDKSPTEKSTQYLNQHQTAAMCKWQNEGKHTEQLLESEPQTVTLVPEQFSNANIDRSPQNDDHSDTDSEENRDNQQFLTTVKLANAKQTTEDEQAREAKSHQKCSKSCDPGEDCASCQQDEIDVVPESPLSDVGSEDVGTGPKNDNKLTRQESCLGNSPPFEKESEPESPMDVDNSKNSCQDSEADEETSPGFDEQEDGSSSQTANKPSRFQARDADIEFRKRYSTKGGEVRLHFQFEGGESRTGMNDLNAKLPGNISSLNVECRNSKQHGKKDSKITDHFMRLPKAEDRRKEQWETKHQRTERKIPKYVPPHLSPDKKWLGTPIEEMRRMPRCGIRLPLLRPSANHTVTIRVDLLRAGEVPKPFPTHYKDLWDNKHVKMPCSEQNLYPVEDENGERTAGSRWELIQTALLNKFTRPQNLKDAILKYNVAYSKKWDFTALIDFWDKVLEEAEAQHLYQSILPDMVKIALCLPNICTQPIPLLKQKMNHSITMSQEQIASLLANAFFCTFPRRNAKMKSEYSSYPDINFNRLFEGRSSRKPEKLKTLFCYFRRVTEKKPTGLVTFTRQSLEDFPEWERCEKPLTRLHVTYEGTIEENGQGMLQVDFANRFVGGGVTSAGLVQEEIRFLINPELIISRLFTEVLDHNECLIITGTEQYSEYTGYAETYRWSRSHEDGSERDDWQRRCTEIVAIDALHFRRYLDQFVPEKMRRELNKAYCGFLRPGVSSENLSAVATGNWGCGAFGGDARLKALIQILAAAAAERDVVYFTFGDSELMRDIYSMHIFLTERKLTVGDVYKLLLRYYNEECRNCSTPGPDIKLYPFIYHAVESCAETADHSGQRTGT

IC50 [µM] | Structure (SMILES)
> 1 | CCSc1ncnc2c1c1ccc(S(=O)(=O)NC3(C#N)CC3)cc1n2-c1nnc(C(F)F)s1 [Example 26, N-(1-Cyanocyclopropyl)-9-(5-(difluoromethyl)-1,3,4-thiadiazol-2-yl)-4-(ethylthio)-9H-pyrimido[4,5-b]indole-7-sulfonamide]
≤ 0.1 | N#CC1(NS(=O)(=O)c2ccc3c4c(SCCO)ncnc4n(-c4nnc(C(F)F)s4)c3c2)CC1 [Example 27, N-(1-Cyanocyclopropyl)-9-(5-(difluoromethyl)-1,3,4-thiadiazol-2-yl)-4-((2-hydroxyethyl)thio)-9H-pyrimido[4,5-b]indole-7-sulfonamide]
≤ 0.1 | CCN(CC)C1CCN(c2ncnc3c2c2ccc(S(=O)(=O)NC4(C#N)CC4)cc2n3-c2nnc(C(F)F)s2)CC1 [Example 28, N-(1-Cyanocyclopropyl)-4-(4-(diethylamino)piperidin-1-yl)-9-(5-(difluoromethyl)-1,3,4-thiadiazol-2-yl)-9H-pyrimido[4,5-b]indole-7-sulfonamide]
≤ 0.1 | CN1CC2CN(c3ncnc4c3c3ccc(S(=O)(=O)NC5(C#N)CC5)cc3n4-c3nnc(C(F)F)s3)CC2C1 (stereo not shown) [Example 29, N-(1-Cyanocyclopropyl)-9-(5-(difluoromethyl)-1,3,4-thiadiazol-2-yl)-4-(5-methylhexahydropyrrolo[3,4-c]pyrrol-2(1H)-yl)-9H-pyrimido[4,5-b]indole-7-sulfonamide]
≤ 0.1 | CN1C[C@H]2C[C@@H]1CN2c1ncnc2c1c1ccc(S(=O)(=O)NC3(C#N)CC3)cc1n2-c1nnc(C(F)F)s1 [Example 30, N-(1-Cyanocyclopropyl)-9-(5-(difluoromethyl)-1,3,4-thiadiazol-2-yl)-4-((1R,4R)-5-methyl-2,5-diazabicyclo[2.2.1]heptan-2-yl)-9H-pyrimido[4,5-b]indole-7-sulfonamide]
≤ 0.1 | CN1C[C@@H]2C[C@H]1CN2c1ncnc2c1c1ccc(S(=O)(=O)NC3(C#N)CC3)cc1n2-c1nnc(C(F)F)s1 [Example 31, N-(1-Cyanocyclopropyl)-9-(5-(difluoromethyl)-1,3,4-thiadiazol-2-yl)-4-((1S,4S)-5-methyl-2,5-diazabicyclo[2.2.1]heptan-2-yl)-9H-pyrimido[4,5-b]indole-7-sulfonamide]
≤ 0.1 | CCN(CC)[C@H]1CCN(c2ncnc3c2c2ccc(S(=O)(=O)NC4(C#N)CC4)cc2n3-c2nnc(C(F)F)s2)C[C@@H]1F [Example 32, N-(1-Cyanocyclopropyl)-4-((3S,4S)-4-(diethylamino)-3-fluoropiperidin-1-yl)-9-(5-(difluoromethyl)-1,3,4-thiadiazol-2-yl)-9H-pyrimido[4,5-b]indole-7-sulfonamide]
≤ 0.1 | CCN(CC)[C@@H]1CCN(c2ncnc3c2c2ccc(S(=O)(=O)NC4(C#N)CC4)cc2n3-c2nnc(C(F)F)s2)C[C@@H]1F [Example 33, N-(1-Cyanocyclopropyl)-4-((3S,4R)-4-(diethylamino)-3-fluoropiperidin-1-yl)-9-(5-(difluoromethyl)-1,3,4-thiadiazol-2-yl)-9H-pyrimido[4,5-b]indole-7-sulfonamide]
≤ 0.1 | CCN(CC)[C@H]1CCN(c2ncnc3c2c2ccc(S(=O)(=O)NC4(C#N)CC4)cc2n3-c2nnc(C(F)F)s2)C[C@H]1F [Example 34, N-(1-Cyanocyclopropyl)-4-((3R,4S)-4-(diethylamino)-3-fluoropiperidin-1-yl)-9-(5-(difluoromethyl)-1,3,4-thiadiazol-2-yl)-9H-pyrimido[4,5-b]indole-7-sulfonamide]
≤ 0.1 | CCN(CC)[C@@H]1CCN(c2ncnc3c2c2ccc(S(=O)(=O)NC4(C#N)CC4)cc2n3-c2nnc(C(F)F)s2)C[C@H]1F [Example 35, N-(1-Cyanocyclopropyl)-4-((3R,4R)-4-(diethylamino)-3-fluoropiperidin-1-yl)-9-(5-(difluoromethyl)-1,3,4-thiadiazol-2-yl)-9H-pyrimido[4,5-b]indole-7-sulfonamide]
≤ 0.1 | N#CC1(NS(=O)(=O)c2ccc3c4c(N5CCC(N6CCC(F)(F)CC6)[C@@H](F)C5)ncnc4n(-c4nnc(C(F)F)s4)c3c2)CC1 (stereo partly drawn) [Example 36, N-(1-Cyanocyclopropyl)-9-(5-(difluoromethyl)-1,3,4-thiadiazol-2-yl)-4-((3′S)-3′,4,4-trifluoro-[1,4′-bipiperidin]-1′-yl)-9H-pyrimido[4,5-b]indole-7-sulfonamide]
≤ 0.1 | CN(C)CC1CN(c2ncnc3c2c2ccc(S(=O)(=O)NC4(C#N)CC4)cc2n3-c2nnc(C(F)F)s2)CCO1 (stereo not shown) [Example 37, N-(1-Cyanocyclopropyl)-9-(5-(difluoromethyl)-1,3,4-thiadiazol-2-yl)-4-(2-((dimethylamino)methyl)morpholino)-9H-pyrimido[4,5-b]indole-7-sulfonamide]
≤ 0.1 | CCN1CCC2CN(c3ncnc4c3c3ccc(S(=O)(=O)NC5(C#N)CC5)cc3n4-c3nnc(C(F)F)s3)CCC21 (stereo not shown) [Example 38, N-(1-Cyanocyclopropyl)-9-(5-(difluoromethyl)-1,3,4-thiadiazol-2-yl)-4-(1-ethyloctahydro-5H-pyrrolo[3,2-c]pyridin-5-yl)-9H-pyrimido[4,5-b]indole-7-sulfonamide]
≤ 0.1 | CCN(CC)C1C[C@H]2C[C@@H]1CN2c1ncnc2c1c1ccc(S(=O)(=O)NC3(C#N)CC3)cc1n2-c1nnc(C(F)F)s1 (stereo partly drawn) [Example 39, N-(1-Cyanocyclopropyl)-4-((1R,4R)-5-(diethylamino)-2-azabicyclo[2.2.1]heptan-2-yl)-9-(5-(difluoromethyl)-1,3,4-thiadiazol-2-yl)-9H-pyrimido[4,5-b]indole-7-sulfonamide]
0.1 to 1 | N#CC1(NS(=O)(=O)c2ccc3c4c(N5C[C@H]6C[C@@H]5CC6(F)F)ncnc4n(-c4nnc(C(F)F)s4)c3c2)CC1 [Example 40, N-(1-Cyanocyclopropyl)-4-((1R,4R)-5,5-difluoro-2-azabicyclo [2.2.1]heptan-2-yl)-9-(5-(difluoromethyl)-1,3,4-thiadiazol-2-yl)-9H-pyrimido[4,5-b]indole-7-sulfonamide]
≤ 0.1 | C[C@@H]1CN(c2ncnc3c2c2ccc(S(=O)(=O)NC4(C#N)CC4)cc2n3-c2nnc(C(F)F)s2)C[C@H](C)N1C [Example 41, N-(1-Cyanocyclopropyl)-9-(5-(difluoromethyl)-1,3,4-thiadiazol-2-yl)-4-((3R,5S)-3,4,5-trimethylpiperazin-1-yl)-9H-pyrimido[4,5-b]indole-7-sulfonamide]
≤ 0.1 | N#CC1(NS(=O)(=O)c2ccc3c4c(N5CCO[C@@H](CO)C5)ncnc4n(-c4nnc(C(F)F)s4)c3c2)CC1 [Example 42, (R)-N-(1-Cyanocyclopropyl)-9-(5-(difluoromethyl)-1,3,4-thiadiazol-2-yl)-4-(2-(hydroxymethyl)morpholino)-9H-pyrimido[4,5-b]indole-7-sulfonamide]
≤ 0.1 | CN1CCN(c2ncnc3c2c2ccc(S(=O)(=O)NC4(C#N)CC4)cc2n3-c2nnc(C(F)F)s2)C[C@@H]1CO [Example 43, (R)-N-(1-Cyanocyclopropyl)-9-(5-(difluoromethyl)-1,3,4-thiadiazol-2-yl)-4-(3-(hydroxymethyl)-4-methylpiperazin-1-yl)-9H-pyrimido[4,5-b]indole-7-sulfonamide]
≤ 0.1 | N#CC1(NS(=O)(=O)c2ccc3c4c(N5CCn6ccnc6C5)ncnc4n(-c4nnc(C(F)F)s4)c3c2)CC1 [Example 44, N-(1-Cyanocyclopropyl)-9-(5-(difluoromethyl)-1,3,4-thiadiazol-2-yl)-4-(5,6-dihydroimidazo[1,2-a]pyrazin-7(8H)-yl)-9H-pyrimido[4,5-b]indole-7-sulfonamide]
